Assay results as given in ChEMBL document CHEMBL6182852, “Discovery of ATP competitive PDHK1/2 dual inhibitors” (Bioorg Med Chem Lett, 2025).

What was measured:
[1] = Cytotoxicity against human PBMC cells
[2] = Inhibition of E1 PDHK (unknown origin) phosphorylation at S232 residues; parameters: species or system Homo sapiens
[3] = molecular target: [Pyruvate dehydrogenase (acetyl-transferring)] kinase isozyme 2, mitochondrial (Homo sapiens, UniProt Q15119); assay: Inhibition of PDHK2 (unknown origin)
[4] = Inhibition of LPS-induced TNF release in human PBMC cells; type: functional, cell-based
[5] = molecular target: [Pyruvate dehydrogenase (acetyl-transferring)] kinase isozyme 1, mitochondrial (Homo sapiens, UniProt Q15118); assay: Inhibition of PDHK1 (unknown origin) in presence of 0.5 uM ATP
Chain of [Pyruvate dehydrogenase (acetyl-transferring)] kinase isozyme 1, mitochondrial (Q15118 whole entry): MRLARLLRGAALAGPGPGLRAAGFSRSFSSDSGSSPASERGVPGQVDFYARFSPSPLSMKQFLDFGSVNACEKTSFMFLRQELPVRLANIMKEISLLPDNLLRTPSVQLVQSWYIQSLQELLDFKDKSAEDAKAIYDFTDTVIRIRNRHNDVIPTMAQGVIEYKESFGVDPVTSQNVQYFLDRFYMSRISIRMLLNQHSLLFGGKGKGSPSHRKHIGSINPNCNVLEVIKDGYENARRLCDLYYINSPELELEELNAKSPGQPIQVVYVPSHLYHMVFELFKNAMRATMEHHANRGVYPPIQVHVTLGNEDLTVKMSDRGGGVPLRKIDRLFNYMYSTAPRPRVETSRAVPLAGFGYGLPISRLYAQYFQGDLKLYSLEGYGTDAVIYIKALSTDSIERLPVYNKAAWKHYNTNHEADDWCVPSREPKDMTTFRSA

Row | SMILES | IC50 [3] [nM] | IC50 [4] [µM] | IC50 [5] [µM] | CC50 [1] [µM] | IC50 [2] [µM]
1 | CSc1cc(-c2nccs2)n[nH]1 | – | – | > 100 | – | –
2 | CCNc1cc(F)cc2c1NC(=O)C2(CC)N1CCC[C@@H](NC(=O)C2CC3(C2)CN(C#N)C3)C1 (mixture of isomers) | 15 | 0.9 | – | > 100 | –
3 | CCNc1cc(F)cc2c1[nH]c(=O)n2-c1ccc(Oc2cccc(S(=O)(=O)F)c2)cc1 | 120 | 24.5 | – | > 100 | 5.3
4 | CCNc1cc(F)cc2c1NC(=O)C2(C)N1CCC[C@@H](Nc2ccc(C#N)nc2)C1 (mixture of isomers) | – | 4.5 | – | 56.9 | –

Continued, in another order:

Row | IC50 [3] [nM] | IC50 [4] [µM] | IC50 [5] [µM] | SMILES | CC50 [1] [µM] | IC50 [2] [µM]
5 | 34 | 71 | – | CCNc1cc(F)cc2c1[nH]c(=O)n2-c1c(C)cc(Oc2cccc(C(=O)O)c2)cc1Cl | > 100 | > 100
6 | – | > 100 | – | CCNc1cc(F)cc2c1NC(=O)C2(C)N1CCC[C@@H](Nc2ccc(C(=O)O)c(Cl)c2)C1 (stereo partly drawn) | > 100 | –
7 | – | 49 | – | CCNc1cc(F)cc2c1NC(=O)C2(C)N1CCCCC1 (racemic) | > 100 | –
